In patent US11623919B2, “Heterocyclic P2X7 antagonists” (AXXAM S.P.A., priority 2017, dated 2023):

Key:
Test in all cases: Screen Quest Fluo-8 No Wash Calcium Assay (Bz-ATP evoked Ca2+ influx, FLIPR)
Assay type in all cases: cell-based
P2X7 receptor [1] = biological target: T1, P2X7 receptor (Homo sapiens, UniProt Q99572); parameters: hP2X7 (IC50; nM); other: hP2X7; HEK-293 cells stably transfected with P2X7 receptor, Bz-ATP at EC80, Fluo-8 NW; potency; settings: hP2X7; HEK-293 cells stably transfected with P2X7 receptor, Bz-ATP at EC80, Fluo-8 NW; potency ranges A-D
T1 sequence (Q99572 1-595): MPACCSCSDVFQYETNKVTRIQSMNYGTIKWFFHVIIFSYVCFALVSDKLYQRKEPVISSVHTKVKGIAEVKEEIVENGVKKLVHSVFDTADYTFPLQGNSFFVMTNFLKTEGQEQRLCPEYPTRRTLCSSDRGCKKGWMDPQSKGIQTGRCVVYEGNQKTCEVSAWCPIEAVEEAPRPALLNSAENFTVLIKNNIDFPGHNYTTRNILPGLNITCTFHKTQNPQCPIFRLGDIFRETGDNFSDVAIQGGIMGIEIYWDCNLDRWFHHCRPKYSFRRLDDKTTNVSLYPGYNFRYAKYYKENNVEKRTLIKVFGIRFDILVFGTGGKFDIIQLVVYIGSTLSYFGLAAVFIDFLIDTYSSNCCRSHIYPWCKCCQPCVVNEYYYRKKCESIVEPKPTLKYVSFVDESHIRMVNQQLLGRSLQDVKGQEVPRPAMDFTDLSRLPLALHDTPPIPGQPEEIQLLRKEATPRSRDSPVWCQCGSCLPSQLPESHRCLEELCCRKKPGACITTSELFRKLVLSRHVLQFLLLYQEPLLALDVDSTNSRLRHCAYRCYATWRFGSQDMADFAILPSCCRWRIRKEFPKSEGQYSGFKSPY
Description: (§1) Extracellular binding of Bz-ATP to P2X7 receptor opens the channel and allows Ca2+ influx into the cells. […] Once inside the cell, the lipophilic blocking groups of Fluo-8 are cleaved by non-specific cell esterases, resulting in a negatively-charged fluorescent dye that stays inside cells. Its fluorescence increases upon binding to calcium.
(§2) HEK-293 cells stably transfected with P2X7 receptor were seeded overnight in growth medium at 10,000 to 20,000 cell/well in 384-well plate. 24 hours later, the medium was removed and the cells were pre-loaded at RT for 1 hour with 20 μL/w of Fluo-8 NW. Then 10 μL/w of tests compounds and reference antagonist A438079 at 3×-concentration were injected with the […] and the kinetic response over a period of five minutes was monitored. A second injection of 15 μL/w of 3× reference activator (Bz-ATP at EC80) was performed with the […] and the signal of the emitted fluorescence was recorded for additional three minutes. All the experiment was carried out in a Low Divalent Cation Assay Buffer (0.3 mM Ca^2+ and 0 mM Mg^2+). The effect of the test compounds was measured as percent inhibition vs the reference antagonist and IC50 values were calculated accordingly.

P2X7 receptor [2] = biological target: T2, P2X7 receptor (Rattus norvegicus, UniProt Q64663); settings: rP2X7; HEK-293 cells stably transfected with P2X7 receptor, Bz-ATP at EC80, Fluo-8 NW; potency ranges A-D
T2 construct: rP2X7 (IC50; nM); other: rP2X7; HEK-293 cells stably transfected with P2X7 receptor, Bz-ATP at EC80, Fluo-8 NW; potency
T2 sequence (Q64663 1-595): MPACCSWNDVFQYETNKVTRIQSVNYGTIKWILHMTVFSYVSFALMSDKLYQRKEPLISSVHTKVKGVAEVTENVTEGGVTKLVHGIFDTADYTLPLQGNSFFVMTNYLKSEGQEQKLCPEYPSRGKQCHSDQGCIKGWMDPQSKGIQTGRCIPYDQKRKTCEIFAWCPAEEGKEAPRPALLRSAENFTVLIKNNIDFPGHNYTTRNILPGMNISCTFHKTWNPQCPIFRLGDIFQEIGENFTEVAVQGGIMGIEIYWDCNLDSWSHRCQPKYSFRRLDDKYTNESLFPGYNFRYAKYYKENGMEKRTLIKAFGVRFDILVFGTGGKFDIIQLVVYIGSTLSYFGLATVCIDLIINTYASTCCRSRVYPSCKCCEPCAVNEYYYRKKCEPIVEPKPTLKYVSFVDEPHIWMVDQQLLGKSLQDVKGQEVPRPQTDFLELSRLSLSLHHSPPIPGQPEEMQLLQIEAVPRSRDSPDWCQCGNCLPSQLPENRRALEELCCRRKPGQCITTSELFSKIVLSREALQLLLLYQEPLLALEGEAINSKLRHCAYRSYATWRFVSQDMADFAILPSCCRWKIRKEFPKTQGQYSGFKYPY
Description: as §1, §2

P2X7 receptor [3] = biological target: T3, P2X7 receptor (Mus musculus, UniProt Q9Z1M0); settings: mP2X7; HEK-293 cells stably transfected with P2X7 receptor, Bz-ATP at EC80, Fluo-8 NW; potency ranges A-D
T3 construct: mP2X7 (IC50; nM); other: mP2X7; HEK-293 cells stably transfected with P2X7 receptor, Bz-ATP at EC80, Fluo-8 NW; potency
T3 sequence (Q9Z1M0 1-595): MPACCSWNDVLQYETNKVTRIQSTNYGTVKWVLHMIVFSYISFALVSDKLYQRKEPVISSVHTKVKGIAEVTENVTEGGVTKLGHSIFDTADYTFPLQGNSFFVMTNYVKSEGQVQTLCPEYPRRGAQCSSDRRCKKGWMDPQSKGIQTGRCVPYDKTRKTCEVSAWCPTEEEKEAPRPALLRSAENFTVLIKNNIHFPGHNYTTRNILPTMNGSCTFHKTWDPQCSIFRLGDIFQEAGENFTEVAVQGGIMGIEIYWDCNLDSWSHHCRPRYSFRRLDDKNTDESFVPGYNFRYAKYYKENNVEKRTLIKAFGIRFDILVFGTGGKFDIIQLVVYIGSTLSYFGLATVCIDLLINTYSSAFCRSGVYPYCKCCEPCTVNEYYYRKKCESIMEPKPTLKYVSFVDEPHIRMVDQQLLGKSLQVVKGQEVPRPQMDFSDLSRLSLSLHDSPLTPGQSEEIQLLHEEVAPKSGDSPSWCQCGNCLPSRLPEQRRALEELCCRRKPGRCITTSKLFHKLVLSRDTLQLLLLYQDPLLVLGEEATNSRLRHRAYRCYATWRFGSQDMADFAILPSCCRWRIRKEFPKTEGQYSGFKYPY
Description: as §1, §2

O=c1onc(Cc2c(F)cccc2Cl)n1Cc1cccnc1 [Example 42, 3-[(2-chloro-6-fluorophenyl)methyl]-4-(pyridin-3-ylmethyl)-4,5-dihydro-1,2,4-oxadiazol-5-one] was tested, and the IC50 (P2X7 receptor [1]) was > 10000 nM, the IC50 (P2X7 receptor [2]) was > 10000 nM and the IC50 (P2X7 receptor [3]) was > 10000 nM.

O=c1onc(Cc2c(F)cccc2Cl)n1Cc1ccncc1 [Example 43, 3-[(2-chloro-6-fluorophenyl)methyl]-4-(pyridin-4-ylmethyl)-4,5-dihydro-1,2,4-oxadiazol-5-one] was tested, and the IC50 (P2X7 receptor [1]) was > 10000 nM, the IC50 (P2X7 receptor [2]) was > 10000 nM and the IC50 (P2X7 receptor [3]) was > 10000 nM.

For O=c1onc(Cc2c(F)cccc2Cl)n1Cc1ccoc1 [Example 44, 3-[(2-chloro-6-fluorophenyl)methyl]-4-(furan-3-ylmethyl)-4,5-dihydro-1,2,4-oxadiazol-5-one], the IC50 (P2X7 receptor [1]) was 1000 to 10000 nM, the IC50 (P2X7 receptor [2]) was 1000 to 10000 nM and the IC50 (P2X7 receptor [3]) was > 10000 nM.

In the case of O=c1onc(Cc2c(F)cccc2Cl)n1Cc1ncc(F)cn1 [Example 45, 3-[(2-chloro-6-fluorophenyl)methyl]-4-[(5-fluoropyrimidin-2-yl)methyl]-4,5-dihydro-1,2,4-oxadiazol-5-one], the IC50 (P2X7 receptor [1]) is reported as > 10000 nM, the IC50 (P2X7 receptor [2]) is reported as > 10000 nM and the IC50 (P2X7 receptor [3]) is reported as > 10000 nM.

For Cc1cc(Cn2c(Cc3c(F)cccc3Cl)noc2=O)n(C)n1 [Example 46, 3-[(2-chloro-6-fluorophenyl)methyl]-4-[(1,3-dimethyl-1H-pyrazol-5-yl)methyl]-4,5-dihydro-1,2,4-oxadiazol-5-one], the IC50 (P2X7 receptor [1]) was > 10000 nM, the IC50 (P2X7 receptor [2]) was > 10000 nM and the IC50 (P2X7 receptor [3]) was > 10000 nM.

In the case of Cn1ccnc1Cn1c(Cc2c(F)cccc2Cl)noc1=O [Example 47, 3-[(2-chloro-6-fluorophenyl)methyl]-4-[(1-methyl-1H-imidazol-2-yl)methyl]-4,5-dihydro-1,2,4-oxadiazol-5-one], the IC50 (P2X7 receptor [1]) is reported as > 10000 nM, the IC50 (P2X7 receptor [2]) is reported as > 10000 nM and the IC50 (P2X7 receptor [3]) is reported as > 10000 nM.

With O=c1onc(Cc2ccc(F)cc2)n1Cc1cccc(Cl)c1Cl [Example 50, 4-[(2,3-dichlorophenyl)methyl]-3-[(4-fluorophenyl)methyl]-4,5-dihydro-1,2,4-oxadiazol-5-one] the IC50 (P2X7 receptor [1]) was > 10000 nM, the IC50 (P2X7 receptor [2]) was > 10000 nM and the IC50 (P2X7 receptor [3]) was > 10000 nM.

Work on O=c1onc(Cc2ccc(F)cc2)n1Cc1ccc(F)cc1Cl [Example 51, 4-[(2-chloro-4-fluorophenyl)methyl]-3-[(4-fluorophenyl)methyl]-4,5-dihydro-1,2,4-oxadiazol-5-one] yielded an IC50 (P2X7 receptor [1]) of 1000 to 10000 nM, an IC50 (P2X7 receptor [2]) of 1000 to 10000 nM and an IC50 (P2X7 receptor [3]) of 1000 to 10000 nM.

With O=c1onc(Cc2ccc(F)cc2)n1Cc1cccc(C(F)(F)F)c1Cl [Example 52, 4-{[2-chloro-3-(trifluoromethyl)phenyl]methyl}-3-[(4-fluorophenyl)methyl]-4,5-dihydro-1,2,4-oxadiazol-5-one] the IC50 (P2X7 receptor [1]) was > 10000 nM, the IC50 (P2X7 receptor [2]) was > 10000 nM and the IC50 (P2X7 receptor [3]) was > 10000 nM.

O=c1onc(Cc2ccc(F)cc2)n1Cc1ccc(F)cc1F [Example 53, 4-[(2,4-difluorophenyl)methyl]-3-[(4-fluorophenyl)methyl]-4,5-dihydro-1,2,4-oxadiazol-5-one] was tested, and the IC50 (P2X7 receptor [1]) was > 10000 nM, the IC50 (P2X7 receptor [2]) was 200 to 1000 nM and the IC50 (P2X7 receptor [3]) was > 10000 nM.

For O=c1onc(Cc2ccc(F)cc2)n1Cc1ccc(F)cc1 [Example 54, bis[(4-fluorophenyl)methyl]-4,5-dihydro-1,2,4-oxadiazol-5-one], the IC50 (P2X7 receptor [1]) was 1000 to 10000 nM, the IC50 (P2X7 receptor [2]) was > 10000 nM and the IC50 (P2X7 receptor [3]) was > 10000 nM.

Work on O=c1onc(Cc2c(F)cccc2Cl)n1Cc1ccccc1F [Example 56, 3-[(2-chloro-6-fluorophenyl)methyl]-4-[(2-fluorophenyl)methyl]-4,5-dihydro-1,2,4-oxadiazol-5-one] yielded an IC50 (P2X7 receptor [1]) of 1000 to 10000 nM, an IC50 (P2X7 receptor [2]) of 1000 to 10000 nM and an IC50 (P2X7 receptor [3]) of 1000 to 10000 nM.

For COc1cccc(Cn2c(Cc3c(F)cccc3Cl)noc2=O)c1 [Example 57, 3-[(2-chloro-6-fluorophenyl)methyl]-4-[(3-methoxyphenyl)methyl]-4,5-dihydro-1,2,4-oxadiazol-5-one], the IC50 (P2X7 receptor [1]) was 1000 to 10000 nM, the IC50 (P2X7 receptor [2]) was 1000 to 10000 nM and the IC50 (P2X7 receptor [3]) was 1000 to 10000 nM.

Work on O=c1onc(Cc2c(F)cccc2Cl)n1Cc1cccc(C(F)(F)F)c1Cl [Example 58, 4-{[2-chloro-3-(trifluoromethyl)phenyl]methyl}-3-[(2-chloro-6-fluorophenyl)methyl]-4,5-dihydro-1,2,4-oxadiazol-5-one] yielded an IC50 (P2X7 receptor [1]) of 1000 to 10000 nM, an IC50 (P2X7 receptor [2]) of 1000 to 10000 nM and an IC50 (P2X7 receptor [3]) of 1000 to 10000 nM.

For O=c1onc(Cc2c(F)cccc2Cl)n1Cc1ccccn1 [Example 62, 3-[(2-chloro-6-fluorophenyl)methyl]-4-(pyridin-2-ylmethyl)-4,5-dihydro-1,2,4-oxadiazol-5-one], the IC50 (P2X7 receptor [1]) was > 10000 nM, the IC50 (P2X7 receptor [2]) was > 10000 nM and the IC50 (P2X7 receptor [3]) was > 10000 nM.

Compound O=c1onc(Cc2c(F)cccc2Cl)n1Cc1ccc(C(F)(F)F)cc1 [Example 63, 3-[(2-chloro-6-fluorophenyl)methyl]-4-{[4-(trifluoromethyl)phenyl]methyl}-4,5-dihydro-1,2,4-oxadiazol-5-one] has an IC50 (P2X7 receptor [1]) of 1000 to 10000 nM, an IC50 (P2X7 receptor [2]) of 1000 to 10000 nM and an IC50 (P2X7 receptor [3]) of 1000 to 10000 nM.

With Cc1nc(C(F)(F)F)ccc1Cn1c(Cc2c(F)cccc2Cl)noc1=O [Example 64, 3-[(2-chloro-6-fluorophenyl)methyl]-4-{[2-methyl-6-(trifluoromethyl)pyridin-3-yl]methyl}-4,5-dihydro-1,2,4-oxadiazol-5-one] the IC50 (P2X7 receptor [1]) was 1000 to 10000 nM, the IC50 (P2X7 receptor [2]) was > 10000 nM and the IC50 (P2X7 receptor [3]) was > 10000 nM.

Cc1ccc(Cn2c(Cc3c(F)cccc3Cl)noc2=O)cc1 [Example 67, 3-[(2-chloro-6-fluorophenyl)methyl]-4-[(4-methylphenyl)methyl]-4,5-dihydro-1,2,4-oxadiazol-5-one] showed an IC50 (P2X7 receptor [1]) of 1000 to 10000 nM, an IC50 (P2X7 receptor [2]) of 1000 to 10000 nM and an IC50 (P2X7 receptor [3]) of 1000 to 10000 nM.

In the case of COc1ccc(Cn2c(Cc3c(F)cccc3Cl)noc2=O)cc1 [Example 68, 3-[(2-chloro-6-fluorophenyl)methyl]-4-[(4-methoxyphenyl)methyl]-4,5-dihydro-1,2,4-oxadiazol-5-one], the IC50 (P2X7 receptor [1]) is reported as 1000 to 10000 nM, the IC50 (P2X7 receptor [2]) is reported as > 10000 nM and the IC50 (P2X7 receptor [3]) is reported as > 10000 nM.
